From patent publication US20100316991A1, “HUMAN PARAINFLUENZA VIRUS TYPE 3 EXPRESSING THE ENHANCED GREEN FLUORESCENT PROTEIN FOR USE IN HIGH-THROUGHPUT ANTIVIRAL ASSAYS” (priority 2009, published 2010)
In brackets after ≈: the same amount, converted by molar mass.

Assays:
[1] = test system: rHPIV3-EGFP; assay: 7-Day colorimetric neutral red uptake antiviral assay; assay type: cell-based, human parainfluenza type 3 virus; conditions: for SI: 7-Day colorimetric neutral red uptake assay, SI = Mean IC50/Mean EC50; for EC50: Homo sapiens, MA104, 168 h
Description: (§1) Ninety-six-well plates were seeded with MA-104 cells and infected with 3.9×10^3 PFU of either the HPIV-3 WT or rHPIV3-EGFP virus in duplicate at an MOI=0.1 in quadruplicate wells. The plates were incubated at 37° C. and on each day, including the day of infection, the cells were stained with 0.034% neutral red for 2 hours at 37° C., washed once with PBS, and the NR extracted with ethanol:Sörenson's citrate buffer for 30 min while rocking at room temperature. Absorbance, at 540 and 405 nm wavelengths, was read with an Opsys MR™ spectrophotometer and Revelation Quicklink software, version 4.24 (both from Dynex Technologies, Chantilly, Va.). The two curves was compared and statistically analyzed by ANOVA.
(§2) Six 96-well plates were seeded with MA-104 cells to evaluate the NR and EGFP assays in parallel. A format was used allowing seven compounds to be tested per plate. Each compound was plated using four 10-fold dilutions in triplicate and starting the concentration at 1000 μg/mL for ribavirin (positive control), and ribamidine; 100 μg/mL for 2-thio-6-azauridine, 3-deazaguanosine, 1-(4-methoxybenzyloxy) adenosine, selenazofurin, and EICAR; 100 μM for CS-978, CS-1164, CS-1196, CS-1227, PSI-0194, PSI-5067, PSI-5095, PSI-5098, PSI-5452, PSI-5449, PSI-5741, PSI-5746, PSI-5747, PSI-5852, and PSI-5990; and 1 μg/mL for DAS181. Compounds that were reconstituted in DMSO were diluted down to working concentrations of 0.5% DMSO and less to eliminate cell toxicity due to the DMSO. Two of the replicates were infected with 3.9×10^3 PFU of rHPIV3-EGFP, at an MOI=0.1, while the remaining replicate served as a toxicity control with no virus added. Three of the plates were incubated at 37° C. for 3 days, after which, the toxicity and cell control cells were stained with NR following the same procedure described earlier. NR fluorescence was measured with the FMax® fluorometer, using the 544 nm excitation and 612 nm emission filters. The untreated virus control and treated, infected cells were washed with PBS, fresh PBS was added, and the fluorescence was measured with the FMax® fluorometer, using the 485 nm excitation and 538 nm emission filters. The other three plates were assayed using the traditional colorimetric NR assay. After incubation for 7 days at 37° C., the cells were stained with NR following the same procedure described earlier. For the NR assay, EC50 and 50% cell inhibitory concentrations (IC50) were calculated by linear regression from percents of untreated, uninfected cell and untreated, infected virus controls. For the EGFP assay, EC50 values were calculated by linear regression using percents of untreated, infected virus controls and IC50 values were also calculated by linear regression using percents of untreated, uninfected cell control. The EC50 and IC50 values for each compound for both assays were compared and statistically analyzed by unpaired, two-tailed Student's t-test. A selectivity index (SI) was calculated for each compound for each assay using the formula: SI=Mean IC50/Mean EC50. Compounds were sorted into positive, SI≧10, and negative, SI<10, categories for the combination of NR and EGFP assays. Using the NR assay as the gold standard, sensitivity, true positives/(true positives+false negatives), and specificity, true negatives/(true negatives+false positives), were calculated.

[2] = test system: rHPIV3-EGFP; assay: Antiviral sensitivity CPE assay (neutral red), rHPIV3-EGFP; assay type: cell-based, human parainfluenza type 3 virus; conditions: MA104, 168 h
Description: as §1
(§3) An antiviral CPE assay was used to evaluate the antiviral sensitivity profiles of the HPIV-3 WT and rHPIV3-EGFP viruses. Briefly, three compounds: ribavirin (positive control), 2-thio-6-azauridine, and DAS181, were plated in four 10-fold dilutions in five replicates on 96-well plates seeded with MA-104 cells using starting concentrations of 1000, 100, and 1 μg/mL, respectively. […] Fifty percent effective concentrations (EC50) were calculated by linear regression using percents of untreated, uninfected cell and untreated, infected virus controls. EC50 values were compared and statistically analyzed by the unpaired, two-tailed Student's t-test.

[3] = test system: rHPIV3-EGFP; assay: 3-Day EGFP fluorescent antiviral assay; assay type: cell-based, human parainfluenza type 3 virus; conditions: for EC50: MA104, 72 h
Description: as §2

[4] = test system: MA-104 cells; assay: 3-Day EGFP assay, toxicity control (no virus, NR fluorescence); assay type: cell-based, African green monkey; conditions: Chlorocebus sabaeus, MA104, 72 h, 3-Day EGFP fluorescent assay, uninfected MA-104 cells, read-out: IC50 (50% cell inhibitory concentration)
Description: as §2

[5] = test system: MA-104 cells; assay: 7-Day colorimetric neutral red uptake assay, toxicity control (no virus); assay type: cell-based, African green monkey; conditions: Chlorocebus sabaeus, MA104, 168 h, uninfected MA-104 cells, mean of three assays ± SD, read-out: IC50 (50% cell inhibitory concentration)
Description: as §1, §2

[6] = test system: HPIV-3 WT; assay: Antiviral sensitivity CPE assay (neutral red), HPIV-3 WT; assay type: cell-based, human parainfluenza type 3 virus; conditions: Human respirovirus 3, MA104, 168 h, MA-104 cells, MOI=0.1, 7 days, NR, mean ± SD of three replicates
Description: as §1, §3

SMILES | SI [1] | EC50 [1] [µg/mL] | EC50 [2] [µg/mL] | EC50 [3] [µg/mL] | SI [3] | IC50 [4] [µg/mL] | IC50 [5] [µg/mL] | EC50 [6] [µg/mL] | activity category by SI in the EGFP assay [3]
O=c1cnn([C@@H]2O[C@H](CO)[C@@H](O)[C@H]2O)c(=S)[nH]1 [2-Thio-6-azauridine, 2-[(2R,3R,4S,5R)-3,4-Dihydroxy-5-(hydroxymethyl)oxolan-2-yl]-3-sulfanylidene-1,2,4-triazin-5-one] | 28 | 0.6 ± 0.095 | 0.63 ± 0.075 (≈ 2.41 µM) | 0.89 ± 0.13 | >110 | > 100 | 17 ± 3.5 | 1.1 ± 0.058 (≈ 4.21 µM) | –
NC(=O)c1c[se]c([C@@H]2O[C@H](CO)[C@@H](O)[C@H]2O)n1 [Selenazofurin, 2-[(2R,3R,4S,5R)-3,4-dihydroxy-5-(hydroxymethyl)oxolan-2-yl]-1,3-selenazole-4-carboxamide] | 7 | 4.9 ± 1.4 | – | 3.5 ± 0.1 | >29 | > 100 | 34 ± 7.2 | – | moderately active (between 10 and 49 moderately active)
NC(=O)c1ncn([C@@H]2O[C@H](CO)[C@@H](O)[C@H]2O)n1 [Ribavirin, 1-[(2R,3R,4S,5R)-3,4-dihydroxy-5-(hydroxymethyl)oxolan-2-yl]-1,2,4-triazole-3-carboxamide] | 12 | 20 ± 3.6 | 19 ± 4.9 (≈ 77.8 µM) | 31 | >32 | > 1000 | 230 ± 92 | 35 ± 2.5 (≈ 143 µM) | –
N=C(N)c1ncn([C@@H]2O[C@H](CO)[C@@H](O)[C@H]2O)n1 [Ribamidine, 1-[(2R,3R,4S,5R)-3,4-dihydroxy-5-(hydroxymethyl)oxolan-2-yl]-1,2,4-triazole-3-carboximidamide] | 7 | 57 ± 15 | – | 68 ± 2.6 | >15 | > 1000 | 390 ± 20 | – | moderately active (between 10 and 49 moderately active)
COc1ccc(COn2cnc3c(ncn3[C@@H]3O[C@H](CO)[C@@H](O)[C@H]3O)c2=N)cc1 [1-(4-methoxybenzyloxy) adenosine] | 0 | > 31 | – | > 41 | 0 | 41 ± 2.5 | 31 ± 1.2 | – | –
Nc1cc2c(ncn2[C@@H]2O[C@H](CO)[C@@H](O)[C@H]2O)c(=O)[nH]1 [3-Deazaguanosine, 6-amino-1-[(2R,3R,4S,5R)-3,4-dihydroxy-5-(hydroxymethyl)oxolan-2-yl]-5H-imidazo[4,5-c]pyridin-4-one] | <1 | > 31 | – | 21 | >5 | > 100 | 34 ± 3.5 | – | –
C#Cc1c(C(N)=O)ncn1[C@@H]1O[C@H](CO)[C@@H](O)[C@H]1O [EICAR, 1-[(2R,3R,4S,5R)-3,4-dihydroxy-5-(hydroxymethyl)oxolan-2-yl]-5-ethynylimidazole-4-carboxamide] | >120 | 0.81 ± 0.061 | – | 0.35 | >280 | > 100 | > 100 | – | –
